The record followed here is ChEMBL document CHEMBL4257444, “Novel bipharmacophoric inhibitors of the cholinesterases with affinity to the muscarinic receptors M1 and M2” (Medchemcomm, 2017).

Data set [1] concerns the target Cholinesterase (Equus caballus, UniProt P81908).
Description: Inhibition of equine serum BChE using butyrylthiocholine iodide as substrate pretreated for 4.5 mins followed by substrate addition and measured after 2.5 mins by Ellman's method
Data set [2] has as its target Acetylcholinesterase (Electrophorus electricus, UniProt O42275).
Description: Inhibition of electric eel AChE using acetylthiocholine iodide as substrate pretreated for 4.5 mins followed by substrate addition and measured after 2.5 mins by Ellman's method
Data set [3] in a line: physchem. The conditions noted are these: octanol/water.
Description: Octanol/water partition co-efficient, log P of the compound by RP-HPLC analysis
For data set [4], the target named is Cholinesterase (Homo sapiens, UniProt P06276). Description: Inhibition of human serum BChE using butyrylthiocholine iodide as substrate pretreated for 4.5 mins followed by substrate addition and measured after 2.5 mins by Ellman's method.
Chain of Cholinesterase (Homo sapiens, UniProt P06276) (P06276 whole entry): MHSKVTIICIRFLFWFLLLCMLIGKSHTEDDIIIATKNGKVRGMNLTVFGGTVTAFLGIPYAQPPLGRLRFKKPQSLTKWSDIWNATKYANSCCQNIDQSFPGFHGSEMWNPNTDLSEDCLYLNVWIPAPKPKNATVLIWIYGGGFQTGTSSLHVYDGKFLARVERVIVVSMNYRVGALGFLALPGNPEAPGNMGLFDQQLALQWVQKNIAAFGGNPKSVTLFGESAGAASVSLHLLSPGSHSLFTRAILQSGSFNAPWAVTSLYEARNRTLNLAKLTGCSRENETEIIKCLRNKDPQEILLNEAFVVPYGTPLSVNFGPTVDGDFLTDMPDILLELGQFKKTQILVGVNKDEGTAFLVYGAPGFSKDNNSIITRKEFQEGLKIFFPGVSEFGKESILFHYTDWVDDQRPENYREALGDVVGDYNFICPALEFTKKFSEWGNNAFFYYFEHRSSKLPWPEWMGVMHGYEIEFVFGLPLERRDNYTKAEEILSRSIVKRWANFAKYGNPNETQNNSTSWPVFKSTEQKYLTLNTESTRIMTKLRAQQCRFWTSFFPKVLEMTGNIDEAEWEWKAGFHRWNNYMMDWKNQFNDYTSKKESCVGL
Data set [5] has as its target Acetylcholinesterase (Homo sapiens, UniProt P22303). Description: Inhibition of recombinant human AChE expressed in HEK293 cells using acetylthiocholine iodide as substrate pretreated for 4.5 mins followed by substrate addition and measured after 2.5 mins by Ellman's method.
The subject of data set [6] is HepG2. In words: cells. The conditions noted are these: Homo sapiens, HepG2, 72 h.
Description: Cytotoxicity against human HepG2 cells after 72 hrs by alamar blue assay
The target in data set [7] is Acetylcholinesterase (Electrophorus electricus) (UniProt O42275). In words: Inhibition of electric eel AChE at 100 uM using acetylthiocholine iodide as substrate pretreated for 4.5 mins followed by substrate addition and measured after 2.5 mins by Ellman's method relative to control.
Chain of Acetylcholinesterase (Electrophorus electricus) (O42275 24-633 limits assumed): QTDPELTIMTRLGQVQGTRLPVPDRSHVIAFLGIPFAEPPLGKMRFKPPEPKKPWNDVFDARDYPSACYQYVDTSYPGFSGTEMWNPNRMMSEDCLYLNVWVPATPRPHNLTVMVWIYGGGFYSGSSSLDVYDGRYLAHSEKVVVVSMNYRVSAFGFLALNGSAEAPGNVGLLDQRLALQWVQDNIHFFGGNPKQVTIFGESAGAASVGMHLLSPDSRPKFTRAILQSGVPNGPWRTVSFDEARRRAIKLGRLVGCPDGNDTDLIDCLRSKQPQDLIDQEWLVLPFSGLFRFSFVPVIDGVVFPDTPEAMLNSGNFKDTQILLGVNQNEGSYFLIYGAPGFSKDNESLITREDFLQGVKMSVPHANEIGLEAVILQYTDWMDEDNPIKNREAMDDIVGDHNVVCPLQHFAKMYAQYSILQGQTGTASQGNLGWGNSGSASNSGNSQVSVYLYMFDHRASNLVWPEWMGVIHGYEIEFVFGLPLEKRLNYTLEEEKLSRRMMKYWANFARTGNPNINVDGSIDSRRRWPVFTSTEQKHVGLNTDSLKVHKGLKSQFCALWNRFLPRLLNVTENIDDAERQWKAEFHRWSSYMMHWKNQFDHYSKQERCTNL
Data set [8] is filed under the species Homo sapiens. Description: Selectivity ratio of compound effect for displacement of [3H]NMS from recombinant human M2 receptor expressed in CHO cell membranes to displacement of [3H]NMS from recombinant human M1 receptor expressed in CHO cell membranes.

Structures are written as SMILES.

Chain of Cholinesterase (Equus caballus, UniProt P81908) (P81908 whole entry): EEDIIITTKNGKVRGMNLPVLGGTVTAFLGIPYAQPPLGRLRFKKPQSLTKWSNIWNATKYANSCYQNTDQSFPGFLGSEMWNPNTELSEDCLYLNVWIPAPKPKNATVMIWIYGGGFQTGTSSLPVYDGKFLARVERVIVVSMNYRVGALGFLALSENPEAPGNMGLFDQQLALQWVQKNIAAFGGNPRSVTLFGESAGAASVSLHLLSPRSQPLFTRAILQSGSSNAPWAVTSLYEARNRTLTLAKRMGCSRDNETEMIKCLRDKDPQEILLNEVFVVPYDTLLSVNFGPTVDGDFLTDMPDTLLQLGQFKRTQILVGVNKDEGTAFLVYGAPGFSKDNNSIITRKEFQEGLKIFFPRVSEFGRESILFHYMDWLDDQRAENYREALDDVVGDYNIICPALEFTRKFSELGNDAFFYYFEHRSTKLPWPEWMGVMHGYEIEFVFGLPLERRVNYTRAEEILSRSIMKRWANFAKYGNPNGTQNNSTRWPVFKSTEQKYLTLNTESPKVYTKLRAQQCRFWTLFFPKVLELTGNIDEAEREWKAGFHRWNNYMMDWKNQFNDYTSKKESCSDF
Chain of Acetylcholinesterase (Homo sapiens, UniProt P22303) (P22303 whole entry): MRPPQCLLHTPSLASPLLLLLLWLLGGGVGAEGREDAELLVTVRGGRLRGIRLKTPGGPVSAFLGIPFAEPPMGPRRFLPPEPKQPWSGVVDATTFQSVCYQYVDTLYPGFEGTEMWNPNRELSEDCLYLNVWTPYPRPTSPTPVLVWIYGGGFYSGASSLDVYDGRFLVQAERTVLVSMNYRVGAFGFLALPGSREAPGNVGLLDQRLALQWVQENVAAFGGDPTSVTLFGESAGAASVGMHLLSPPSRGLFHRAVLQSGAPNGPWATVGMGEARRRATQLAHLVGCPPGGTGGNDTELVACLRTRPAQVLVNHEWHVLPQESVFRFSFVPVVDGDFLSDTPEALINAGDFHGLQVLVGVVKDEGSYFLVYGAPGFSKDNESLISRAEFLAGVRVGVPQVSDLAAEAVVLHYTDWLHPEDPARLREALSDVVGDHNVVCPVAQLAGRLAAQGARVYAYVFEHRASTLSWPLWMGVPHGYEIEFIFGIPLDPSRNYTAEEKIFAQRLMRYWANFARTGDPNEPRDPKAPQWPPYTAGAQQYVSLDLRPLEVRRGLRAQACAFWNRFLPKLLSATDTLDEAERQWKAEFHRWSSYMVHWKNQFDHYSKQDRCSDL
Chain of Acetylcholinesterase (Electrophorus electricus, UniProt O42275) (O42275 whole entry): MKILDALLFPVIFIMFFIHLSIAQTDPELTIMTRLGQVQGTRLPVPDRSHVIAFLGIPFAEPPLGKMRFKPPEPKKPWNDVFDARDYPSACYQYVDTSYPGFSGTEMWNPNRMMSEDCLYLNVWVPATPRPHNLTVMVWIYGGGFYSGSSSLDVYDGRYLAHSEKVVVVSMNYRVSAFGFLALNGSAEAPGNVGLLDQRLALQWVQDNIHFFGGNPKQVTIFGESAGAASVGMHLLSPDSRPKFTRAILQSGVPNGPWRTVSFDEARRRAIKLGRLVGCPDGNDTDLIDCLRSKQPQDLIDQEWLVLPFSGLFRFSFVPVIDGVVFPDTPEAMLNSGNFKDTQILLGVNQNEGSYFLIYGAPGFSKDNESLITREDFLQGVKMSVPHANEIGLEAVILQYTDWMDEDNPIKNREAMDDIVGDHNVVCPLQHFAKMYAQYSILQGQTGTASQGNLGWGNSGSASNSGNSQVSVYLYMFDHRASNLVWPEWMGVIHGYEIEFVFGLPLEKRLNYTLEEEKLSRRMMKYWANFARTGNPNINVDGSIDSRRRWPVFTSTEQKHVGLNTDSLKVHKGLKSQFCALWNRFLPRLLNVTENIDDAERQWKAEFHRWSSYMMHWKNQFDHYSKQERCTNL

What is called IC50 is the concentration that gives 50% inhibition. A word on the logP: it is a log measure of how a compound divides between an organic and an aqueous phase. High values mean a more lipophilic compound, low ones a more hydrophilic compound. Regarding `C[N+](C)(CC#CCOC1=NOCC1)CCCCCC[N+]1(C)CCC(N2C(=O)c3cccc4cccc(c34)C2=O)CC1` (configuration not stated), the 50% inhibitory concentration (IC50) was 851 nM in data set [1] and 1050 nM in data set [2]. Besides, in data set [3], the log partition coefficient (logP) is 1.54.
`C[N+](C)(CC#CCOC1=NOCC1)CCCCCC[N+]1(C)CCC(N2C(=O)c3ccccc3C2=O)CC1` (configuration not stated): the figures for the IC50 in data set [1] and in data set [2] were 10700 nM and 2400 nM, respectively. The same molecule displayed a logP in data set [3] of 0.84.
For `C[N+](C)(CC#CCOc1ccon1)CCCCCCCC[N+](C)(C)CCCN1C(=O)c2ccccc2C1=O` the same measures were 7940 nM, 67600 nM and 0.83.
For `BrCCCCCCCCCCNc1c2c(nc3ccccc13)CCCC2`, the values for the 50% inhibitory concentration (IC50) in data set [1] and in data set [2] were 8.71 nM and 0.562 nM, respectively.
Take `C[N+](C)(CC#CCOC1=NOCC1)CCCCCCCCCC[N+](C)(C)CCCN1C(=O)c2ccccc2C1=O`: the half-maximal inhibitory concentration (IC50) in data set [4] is 1950 nM; in data set [5] it was 13200 nM; in data set [1] it was 4270 nM; in data set [2], 5500 nM. For the same molecule, the logP in data set [3] worked out at 0.8.
The corresponding values for `CC(C)(CN1C(=O)c2cccc3cccc(c23)C1=O)C[N+](C)(C)CCCCCCCCCC[N+](C)(C)CC#CCOC1=NOCC1` are 263 nM, 1070 nM, 102 nM, 316 nM and 1.77.
As to `c1ccc2c(NCCCCCCCNc3c4c(nc5ccccc35)CCCC4)c3c(nc2c1)CCCC3`, the IC50 in data set [1] was 0.724 nM; in data set [2], 0.0331 nM; in data set [6] it was below 1380 nM.
In the case of `C[N+](C)(CC#CCOC1=NOCC1)CCCCCCCCC[N+](C)(C)CCCN1C(=O)c2ccccc2C1=O`, the IC50 in data set [1] was 13200 nM; in data set [2], 15800 nM. Besides, the lipophilicity (logP) in data set [3] was 0.79.
As usually defined, the inhibition is the change of the read-out against control, counted positive when it falls. `C[N+](C)(CC#CCOc1ccon1)CCCCCC[N+](C)(C)CCCN1C(=O)c2ccccc2C1=O`: the inhibition in data set [7] was determined as 32.2%. The molecule further had an IC50 in data set [1] of 38900 nM. For the same molecule, the logP in data set [3] worked out at 0.99.
As to `C[N+](C)(CC#CCOC1=NOCC1)CCCCCCCNc1c2c(nc3ccccc13)CCCC2`, the IC50 in data set [4] is 4.57 nM; in data set [5], 2 nM; in data set [1], 5.13 nM; in data set [2] it was 1.74 nM; in data set [6] it was above 160000 nM. Also, the Selectivity ratio in data set [8] was found to be 3. This molecule also returned a logP in data set [3] of 2.05.
Regarding `c1ccc2c(CCCCCCCCCCNc3c4c(nc5ccccc35)CCCC4)c3c(nc2c1)CCCC3`, the IC50 in data set [1] was 0.457 nM; in data set [2] it was 1 nM; in data set [6] it was below 1250 nM.
On to `C[N+](C)(CC#CCOc1ccon1)CCCC[N+](C)(C)CCCN1C(=O)c2ccccc2C1=O`, for which, in data set [7], the inhibition was determined as 19.1%. This molecule gave an IC50 in data set [1] of 85100 nM. The same molecule gave a logP in data set [3] of 1.55.
Take `CC(C)(CN1C(=O)c2cccc3cccc(c23)C1=O)C[N+](C)(C)CCCCCCCCC[N+](C)(C)CC#CCOC1=NOCC1`: the IC50 in data set [1] was 324 nM; in data set [2], 363 nM. In data set [3], this molecule had a logP of 1.69.
For `CC(C)(CN1C(=O)c2cccc3cccc(c23)C1=O)C[N+](C)(C)CCCCCCCC[N+](C)(C)CC#CCOC1=NOCC1` the same measures were 347 nM, 794 nM and 1.61.
The corresponding values for `C[N+](C)(CC#CCOC1=NOCC1)CCCCCCCC[N+](C)(C)CCCN1C(=O)c2ccccc2C1=O` are 7410 nM, 12900 nM and 0.78.
The corresponding values for `CC(C)(CN1C(=O)c2cccc3cccc(c23)C1=O)C[N+](C)(C)CCCCCCC[N+](C)(C)CC#CCOC1=NOCC1` are 204 nM, 912 nM and 1.7.
Turning to `C[N+](C)(CC#CCOC1=NOCC1)CCCCCCCCCCNc1c2c(nc3ccccc13)CCCC2`, the IC50 in data set [4] was 1.82 nM; in data set [5] it was 1.78 nM; in data set [1], 1.78 nM; in data set [2] it was 0.155 nM; in data set [6] it was 32200 nM. Also, in data set [8], the Selectivity ratio amounted to 8. The same molecule gave a logP in data set [3] of 3.28.
`C[N+](C)(CC#CCOC1=NOCC1)CCCCCCC[N+](C)(C)CCCN1C(=O)c2ccccc2C1=O`: the IC50 in data set [1] is 6460 nM; in data set [2], 14800 nM. In data set [3], the logP came to 0.79.
Turning to `BrCCCCCCCNc1c2c(nc3ccccc13)CCCC2`, the values for the concentration for half-maximal inhibition (IC50) in data set [1] and in data set [2] were 263 nM and 0.398 nM, respectively.
